Measured values published in patent US7803788B2, “Prodrugs of phosphonate nucoleotide analogues” (Gilead Sciences, Inc., priority 2000, dated 2010).
Like-named read-outs stand apart in the source and are kept apart here.

Key:
[1] = Stability in human plasma; type: in vitro ADME; conditions: for Human Plasma Stability (HP) product / Human Plasma Stability (HP) t1/2: 37° C., TBS pH 7.5
Procedure: (§1) The in vitro metabolism and stability of separated diastereomers were determined in PLCE, MT-2 extract and human plasma. A biological sample listed below, 80 μL, was transferred into a screw-capped centrifuge tube and incubated at 37° C. for 5 min. A solution containing 0.2 mg/mL of the test compound in a suitable buffer, 20 μL, was added to the biological sample and mixed. The reaction mixture, 20 μL, was immediately sampled and mixed with 60 μL of methanol containing 0.015 mg/mL of 2-hydroxymethylnaphthalene as an internal standard for HPLC analysis. The sample was taken as the time-zero sample. Then, at specific time points, the reaction mixture, 20 μL, was sampled and mixed with 60 μl of methanol containing the internal standard. The mixture thus obtained was centrifuged at 15,000 G for 5 min and the supernatant was analyzed with HPLC under the conditions described below.
(§2) The biological samples evaluated are as follows, • (1) PLCE (porcine liver carboxyesterase from Sigma, 160 u/mg protein, 21 mg protein/mL) diluted 20 fold with PBS (phosphated-buffered saline). • (2) MT-2 cell extract was prepared from MT-2 cells according to the published procedure [A. Pompon, I. Lefebvre, J.-L. Imbach, S. Kahn, and D. Farquhar, “Antiviral Chemistry & Chemotherapy”, 5:91-98 (1994)] except for using HEPES buffer described below as the medium. • (3) Human plasma (pooled normal human plasma from George King Biomedical Systems, Inc.)
In the study for human plasma, the test compound was dissolved in TBS. TBS (tris-buffered saline, Sigma) contains 0.05 M Tris, 0.0027 M potassium chloride, and 0.138 M sodium chloride. pH 7.5 at 37° C.
(§3) The HPLC analysis was carried out under the following conditions.

[2] = Stability / hydrolysis in MT-2 cell extract; type: in vitro ADME; conditions: for MT-2 extract hydrolysis product: 37° C., HEPES buffer pH 7.4
Procedure: as §1, §2
In the study for MT-2 cell extracts, the test compound was dissolved in HEPES buffer. HEPES buffer contains 0.010 M HEPES, 0.05 M potassium chloride, 0.005 M magnesium chloride, and 0.005 M dl-dithiothreitol. pH 7.4 at 37° C.
as §3

[3] = PMPA metabolites in plasma, PBMCs and RBCs after 1 h incubation in human blood
Procedure: After 1 hour, plasma, red blood cells (RBCs) and peripheral blood mononuclear cells (PBMCs) were isolated and analyzed by HPLC with radiometric detection.
Met. Lower case “p” designates phosphorylation.

[4] = Excretion and tissue distribution of radiolabelled GS-7340 in dogs; conditions: dogs, oral 10 mg-eq. PMPA/kg
Procedure: Plasma and peripheral blood mononuclear cells (PBMCs) were obtained over the 24-hr period. Urine and feces were cage collected over 24 hr. At 24 h after the dose, the animals were sacrificed and tissues removed for analysis. Total radioactivity in tissues was determined by oxidation and liquid scintillation counting.

MT-2 cells = test: Cytotoxicity in MT-2 cells
HIV-1 = test: In vitro anti-HIV-1 activity in MT-2 cells; type: cell-based; conditions: Table 5 (selected IC50 data from Table 4); read-out: HIV IC50
[5] = test system: PLCE (porcine liver carboxyesterase); test: PLCE hydrolysis; type: in vitro ADME; conditions: 37° C., PBS pH 7.4
Procedure: as §1, §2
In the study for PLCE, the test compound was dissolved in PBS. PBS (phosphate-buffered saline, Sigma) contains 0.01 M phosphate, 0.0027 M potassium chloride, and 0.137 M sodium chloride. pH 7.4 at 37° C.
as §3

CC(C)OC(=O)[C@H](C)N[P@](=O)(CO[C@H](C)Cn1cnc2c(N)ncnc21)Oc1ccccc1 (single isomer, unassigned) [GS-7340]
Stability T ½ Human Plasma ([1]; human plasma): 1.5 h
Stability T ½ MT-2 Cell Extract ([2]; MT-2 cell extract): 0.472 h
Metabolites (% of Total Peak Area): GS 7340 (intact) ([3]; Plasma/FP): 84%
Total C-14 Recovered ([3]; Plasma/FP, 60 μg-eq): 43.0 μg-eq
Metabolites (% of Total Peak Area): GS 7340 (intact) ([3]; RBC/FP): 57%
% Dose ([4]; Abdominal fat): 0.00%
Conc. ([4]; Abdominal fat): 0.90 ug-eq/g
% Dose ([4]; Adrenal Gland): 0.00%
% Dose ([4]; Axillary Lymph Nodes): 0.01%
% Dose ([4]; Bile): 0.22%
% Dose ([4]; Bone Marrow): 0.00%
% Dose ([4]; Brain): 0.00%
Conc. ([4]; Brain): <LOD
% Dose ([4]; Cerebrospinal Fluid): 0.00%
Conc. ([4]; Cerebrospinal Fluid): 0.00 ug-eq/g
% Dose ([4]; Duodenum): 0.44%
% Dose ([4]; Eye (L + R)): 0.00%
Conc. ([4]; Eye (L + R)): 0.23 ug-eq/g
% Dose ([4]; Feces): 0.19%
% Dose ([4]; Femoral Bone): 0.00%
Conc. ([4]; Femoral Bone): 0.28 ug-eq/g
% Dose ([4]; Gall bladder): 0.04%
% Dose ([4]; Heart): 0.15%
% Dose ([4]; Ileum): 0.16%
% Dose ([4]; Iliac Lymph Nodes): 0.01%
% Dose ([4]; Inguinal Lymph Nodes): 0.00%
% Dose ([4]; Jejunum): 0.79%
% Dose ([4]; Lungs): 0.34%
% Dose ([4]; Mesenteric Lymph Nodes): 0.04%
% Dose ([4]; Pancreas): 0.01%
% Dose ([4]; Pituitary Gland): 0.00%
Conc. ([4]; Pituitary Gland): 1.80 ug-eq/g
% Dose ([4]; Prostate): 0.00%
% Dose ([4]; Salivary Gland (L + R)): 0.03%
% Dose ([4]; Skeletal Muscle): 0.01%
% Dose ([4]; Skin): 0.00%
Conc. ([4]; Skin): 0.95 ug-eq/g
% Dose ([4]; Spinal Cord): 0.00%
Conc. ([4]; Spinal Cord): 0.04 ug-eq/g
% Dose ([4]; Spleen): 0.17%
% Dose ([4]; Stomach): 0.26%
% Dose ([4]; Testes (L + R)): 0.02%
% Dose ([4]; Thyroid Gland): 0.00%
% Dose ([4]; Whole Blood): 0.16%
Conc. ([4]; Whole Blood): 0.20 ug-eq/g
CC50 (MT-2 cells; Table 4): ≥ 40 µM
CC50 (MT-2 cells; read-out: Cytotoxicity CC50, MT-2 cells, Table 1): > 40 µM

CCOC(=O)C(C)NP(=O)(COC(C)Cn1cnc2c(N)ncnc21)Oc1ccccc1 (single isomer, unassigned) [compound 1]
IC50 (HIV-1): 0.005 µM
Human Plasma Stability (HP) product [1]: Met. Y
Human Plasma Stability (HP) t1/2 [1]: 2.47 h
MT-2 extract hydrolysis product [2]: Met. X & PMPA
PLCE hydrolysis product [5]: Met. X & PMPA

CCOC(=O)C(C)NP(=O)(COC(C)Cn1cnc2c(N)ncnc21)Oc1ccccc1 (single isomer, unassigned) [compound 2]
IC50 (HIV-1): 0.05 µM
Human Plasma Stability (HP) product [1]: Met. Y
Human Plasma Stability (HP) t1/2 [1]: 8.25 h
MT-2 extract hydrolysis product [2]: Met. X & PMPA
PLCE hydrolysis product [5]: Met. X & PMPA

CCOC(=O)C(CC)NP(=O)(COC(C)Cn1cnc2c(N)ncnc21)Oc1ccccc1 (single isomer, unassigned) [compound 6]
IC50 (HIV-1): 0.03 µM
Human Plasma Stability (HP) product [1]: Met. Y
Human Plasma Stability (HP) t1/2 [1]: 4.28 h
PLCE hydrolysis product [5]: Met. X
